Patent US4401660A, “Ester derivatives of 5-O-mycaminosyl tylonolide and method of using same” (Eli Lilly and Company, priority 1981, dated 1983)
Where two headings read alike, the source gives them in different places.

Experiments:
[1] = tested on: Pasteurella multocida; assay: Treatment of Pasteurella infections in chicks (Table V); type: in vivo, one-day-old chicks; conditions: 30 mg/kg by subcutaneous injection one and four hours post challenge; for mortality at 30 mg/kg: Pasteurella multocida, sc, 4 h, read-out: Deaths in Treated Chicks/Number Treated (converted)
How it was run: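 Dosing was 30 mg/kg by subcutaneous injection, one and four hours after challenge. Day-old chicks received 0.1 ml of a 10^-3 dilution of a 20-hour tryptose broth culture of avian P. multocida subcutaneously. Nonmedicated infected chicks served as controls, ten per group.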

[2] = tested on: Streptococcus pyogenes C203; assay: ED50 in mice with experimental infections (Table IV); type: in vivo; conditions: doses given 1 and 4 hours postinfection; for ED50: Streptococcus pyogenes
How it was run: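 Read-out is ED50, the mg/kg dose protecting half of infected mice; values refer to each of two doses, given 1 and 4 hours after infection.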

[3] = tested on: Mycoplasma hyorhinis; assay: MIC, broth-dilution microtiter test (Table III); type: cell-based; design: unit not given here
Description: (§1) The MIC's in Table II were determined by standard agar-dilution assays. The MIC's in Table III were obtained using a conventional broth-dilution microtiter test.

[4] = tested on: Pasteurella multocida 68C; assay: MIC, broth-dilution microtiter test (Table III); type: cell-based; design: unit not given here
Description: as §1

[5] = tested on: Pasteurella haemolytica 23C; assay: MIC, broth-dilution microtiter test (Table III); type: cell-based; design: unit not given here
Description: as §1

[6] = tested on: Streptococcus sp. 80; assay: MIC, broth-dilution microtiter test (Table III); type: cell-based; design: unit not given here
Description: as §1

[7] = tested on: Mycoplasma synoviae; assay: MIC, broth-dilution microtiter test (Table III); type: cell-based; design: unit not given here
Description: as §1

[8] = tested on: Pasteurella multocida 17E; assay: MIC, broth-dilution microtiter test (Table III); type: cell-based; design: unit not given here; conditions: bovine isolate
Description: as §1

[9] = tested on: Mycoplasma gallisepticum; assay: MIC, broth-dilution microtiter test (Table III); type: cell-based; design: unit not given here
Description: as §1

[10] = tested on: Pasteurella multocida 22A; assay: MIC, broth-dilution microtiter test (Table III); type: cell-based; design: unit not given here
Description: as §1

[11] = tested on: Pasteurella multocida 40G; assay: MIC, broth-dilution microtiter test (Table III); type: cell-based; design: unit not given here
Description: as §1

[12] = tested on: Staphylococcus aureus; assay: MIC, broth-dilution microtiter test (Table III); type: cell-based; design: unit not given here
Description: as §1

[13] = tested on: Pasteurella haemolytica 22C; assay: MIC, broth-dilution microtiter test (Table III); type: cell-based; design: unit not given here
Description: as §1

[14] = tested on: Pasteurella multocida 60A; assay: MIC, broth-dilution microtiter test (Table III); type: cell-based; design: unit not given here; conditions: avian isolate
Description: as §1

[15] = tested on: Pasteurella haemolytica 41D; assay: MIC, broth-dilution microtiter test (Table III); type: cell-based; design: unit not given here
Description: as §1

[16] = tested on: Streptococcus pneumoniae Park I; assay: MIC, standard agar-dilution assay (Table II); type: cell-based; design: unit not given here
Description: as §1

[17] = tested on: Streptococcus Group D X66; assay: MIC, standard agar-dilution assay (Table II); type: cell-based; design: unit not given here
Description: as §1

[18] = tested on: Staphylococcus epidermidis EPI2; assay: MIC, standard agar-dilution assay (Table II); type: cell-based; design: unit not given here
Description: as §1

[19] = tested on: Streptococcus Group D 9960; assay: MIC, standard agar-dilution assay (Table II); type: cell-based; design: unit not given here
Description: as §1

[20] = tested on: Staphylococcus aureus S13E; assay: MIC, standard agar-dilution assay (Table II); type: cell-based; design: unit not given here
Description: as §1

[21] = tested on: Haemophilus influenzae R252; assay: MIC, standard agar-dilution assay (Table II); type: cell-based; design: unit not given here; conditions: Haemophilus influenzae R252, ampicillin-resistant strain
Description: as §1

[22] = tested on: Haemophilus influenzae Holt; assay: MIC, standard agar-dilution assay (Table II); type: cell-based; design: unit not given here; conditions: ampicillin-sensitive strain
Description: as §1

[23] = tested on: Staphylococcus aureus X1.1; assay: MIC, standard agar-dilution assay (Table II); type: cell-based; design: unit not given here
Description: as §1

[24] = tested on: Staphylococcus aureus V41; assay: MIC, standard agar-dilution assay (Table II); type: cell-based; design: unit not given here; conditions: Staphylococcus aureus V41, penicillin-resistant strain
Description: as §1

[25] = tested on: Staphylococcus epidermidis EPI1; assay: MIC, standard agar-dilution assay (Table II); type: cell-based; design: unit not given here
Description: as §1

[26] = tested on: Staphylococcus aureus X400; assay: MIC, standard agar-dilution assay (Table II); type: cell-based; design: unit not given here; conditions: Staphylococcus aureus X400, methicillin-resistant strain
Description: as §1

[27] = tested on: Streptococcus pyogenes C203; assay: MIC, standard agar-dilution assay (Table II); type: cell-based; design: unit not given here
Description: as §1

[28] = C203, oral, read-out: ED50, Oral
[29] = C203, sc, subcutaneous, read-out: ED50, Subcutaneous

Structure (SMILES)	minimal inhibitory concentration (MIC) [3]	minimal inhibitory concentration (MIC) [4]	minimal inhibitory concentration (MIC) [5]	minimal inhibitory concentration (MIC) [6]	minimal inhibitory concentration (MIC) [7]	minimal inhibitory concentration (MIC) [8]	minimal inhibitory concentration (MIC) [9]	minimal inhibitory concentration (MIC) [10]	minimal inhibitory concentration (MIC) [11]	minimal inhibitory concentration (MIC) [12]	minimal inhibitory concentration (MIC) [13]	minimal inhibitory concentration (MIC) [14]	minimal inhibitory concentration (MIC) [15]	minimal inhibitory concentration (MIC) [16]	minimal inhibitory concentration (MIC) [17]	minimal inhibitory concentration (MIC) [18]	minimal inhibitory concentration (MIC) [19]	minimal inhibitory concentration (MIC) [20]	minimal inhibitory concentration (MIC) [21]	minimal inhibitory concentration (MIC) [22]	other results
CCC1OC(=O)CC(O)C(C)C(OC2OC(C)C(O)C(N(C)C)C2OC(C)=O)C(CC=O)CC(C)C(=O)C=CC(C)=CC1CO (centres unmarked) [Compound 1, 2'-O-Acetyl-OMT]	3.12	3.12	12.5	0.78	0.39	1.56	0.39	3.12	6.25	1.56	12.5	1.56	12.5	0.5	2	2	4	4	4	4	mortality at 30 mg/kg [1]: 0%; ED50 [2, 28]: > 150 mg/kg; ED50 [2, 29]: 6.8 mg/kg; minimal inhibitory concentration (MIC) [23]: 2; minimal inhibitory concentration (MIC) [24]: 4; minimal inhibitory concentration (MIC) [25]: 2; minimal inhibitory concentration (MIC) [26]: 4; minimal inhibitory concentration (MIC) [27]: 0.5
CCC1OC(=O)CC(O)C(C)C(OC2OC(C)C(O)C(N(C)C)C2OC(C)=O)C(CC=O)CC(C)C(=O)C=CC(C)=CC1COC(C)=O (centres unmarked) [Compound 9]	1.56	3.12	3.12	0.195	0.097	1.56	< 0.78	6.25	1.56	0.78	3.12	1.56	3.12	0.125	0.5	0.25	0.5	0.25	4	1	mortality at 30 mg/kg [1]: 0%; ED50 [2, 28]: 137 mg/kg; ED50 [2, 29]: 6.4 mg/kg; minimal inhibitory concentration (MIC) [23]: 0.45; minimal inhibitory concentration (MIC) [24]: 0.5; minimal inhibitory concentration (MIC) [25]: 0.25; minimal inhibitory concentration (MIC) [26]: 0.5; minimal inhibitory concentration (MIC) [27]: 0.25
CCC1OC(=O)CC(O)C(C)C(OC2OC(C)C(O)C(N(C)C)C2O)C(CC=O)CC(C)C(=O)C=CC(C)=CC1COC(=O)OC (centres unmarked) [Compound 74]	0.78	12.5	3.12	0.39	0.195	1.56	< 0.048	25	12.5	1.56	6.25	1.56	1.56	0.03	0.5	0.25	0.25	0.25	2	1	mortality at 30 mg/kg [1]: 0%; ED50 [2, 28]: > 100 mg/kg; ED50 [2, 29]: 3 mg/kg; minimal inhibitory concentration (MIC) [23]: 0.25; minimal inhibitory concentration (MIC) [24]: 0.25; minimal inhibitory concentration (MIC) [25]: 0.25; minimal inhibitory concentration (MIC) [26]: 0.5; minimal inhibitory concentration (MIC) [27]: 0.25
CCC(=O)OCC1C=C(C)C=CC(=O)C(C)CC(CC=O)C(OC2OC(C)C(O)C(N(C)C)C2O)C(C)C(O)CC(=O)OC1CC (centres unmarked) [Compound 14, 23-O-Propionyl-OMT]	6.25	1.56	3.12	0.195	0.05	1.56	0.05	3.12	1.56	0.39	6.25	0.78	6.25	0.125	0.25	0.125	0.25	0.25	4	1	mortality at 30 mg/kg [1]: 0%; ED50 [2, 28]: 106 mg/kg; ED50 [2, 29]: 6 mg/kg; minimal inhibitory concentration (MIC) [23]: 0.25; minimal inhibitory concentration (MIC) [24]: 0.25; minimal inhibitory concentration (MIC) [25]: 0.125; minimal inhibitory concentration (MIC) [26]: 0.25; minimal inhibitory concentration (MIC) [27]: 0.125
CCC1OC(=O)CC(O)C(C)C(OC2OC(C)C(O)C(N(C)C)C2O)C(CC=O)CC(C)C(=O)C=CC(C)=CC1COC(=O)C(N)c1ccccc1 (centres unmarked) [Compound 57]	6.25	3.12	6.25	0.39	0.39	6.25	0.195	3.12	3.12	3.12	6.25	3.12	6.25	0.03	0.5	1	0.5	0.5	2	2	Deaths in Treated Chicks/Number Treated [1]: 0/10; ED50, Oral ([2]; oral): 91 mg/kg × 2; ED50, Subcutaneous ([2]; subcutaneous): 2.6 mg/kg × 2; minimal inhibitory concentration (MIC) [23]: 0.5; minimal inhibitory concentration (MIC) [24]: 0.5; minimal inhibitory concentration (MIC) [25]: 0.5; minimal inhibitory concentration (MIC) [26]: 1; minimal inhibitory concentration (MIC) [27]: 0.125
